Test results reported in patent US10172905B1, “Treatment of protein degradation disorders” (President and Fellows of Harvard College, priority 2005, dated 2019).
Like-named read-outs stand apart in the source and are kept apart here. Non-standard residues stand in square brackets, D forms with d. Residues, ends and D or L forms follow the SMILES beside them. Aoe = N[C@@H](CCCCCC(=O)[C@@H]1CO1)C(=O)O

Columns and labels:
[1] = test system: tubulin acetylation versus lysine acetylation; test: Immunofluorescence assay for acetylated tubulin versus acetylated lysine; type: cell-based; settings: cells not given
Source text: The present invention provides an immunofluorescence-based assay for identifying test agents with HDAC and/or TDAC inhibitory activity. The inventive assay is based on the use of specific antibodies for acetylated tubulin and acetylated lysine (i.e., a marker for acetylated histones). […] As described above, any type of agent, including small molecules, polymers, biomolecules, proteins, peptides, polynucleotides, etc., may be screened using the inventive assay. In certain embodiments, small molecules are screened. In certain particular embodiments, the small molecules are tubacin-like or are tubacin derivatives. In certain embodiments, the small molecules are compounds of the present invention. The test agents may also be small molecules purchased, prepared through traditional synthetic techniques, prepared through combinatorial chemistry techniques, or obtained from historical chemical collections. In certain embodiments, the test agents are biomolecules. In other embodiments, the test agents are proteins or peptides. In yet other embodiments, the test agents are polynucleotides. In certain embodiments, the test agents are polymers.
The assay involves contacting cells with a specific concentration of the test agent under specific conditions. […] There particular parameters may be determined by the operator or scientist conducting the assay as would be appreciated by one of skill in this art. After a determined time of incubation with the test compound, the cells are treated with a first primary antibody directed against acetylated tubulin and a second primary antibody directed against acetylated lysine. […] The signal from each of the secondary antibodies is measured and optionally quantitated to determine the amount of TDAC and HDAC inhibition under the specified conditions with the test agent. Optionally, the extent of inhibition is determined relative to a control in which no test agent was added. In certain embodiments, the secondary antibody is left out and the primary antibodies are uniquely labeled for identification and optionally quantification. […]

[2] = test system: MM.1S and RPMI cells; test: Synergy with Velcade/Bortezomib in myeloma cell lines; type: cell-based
[3] = biological target: T1, HDAC6 (Homo sapiens, UniProt Q9UBN7); settings: stated property of control compound; cited from earlier work
T1 sequence (Q9UBN7 1-1215): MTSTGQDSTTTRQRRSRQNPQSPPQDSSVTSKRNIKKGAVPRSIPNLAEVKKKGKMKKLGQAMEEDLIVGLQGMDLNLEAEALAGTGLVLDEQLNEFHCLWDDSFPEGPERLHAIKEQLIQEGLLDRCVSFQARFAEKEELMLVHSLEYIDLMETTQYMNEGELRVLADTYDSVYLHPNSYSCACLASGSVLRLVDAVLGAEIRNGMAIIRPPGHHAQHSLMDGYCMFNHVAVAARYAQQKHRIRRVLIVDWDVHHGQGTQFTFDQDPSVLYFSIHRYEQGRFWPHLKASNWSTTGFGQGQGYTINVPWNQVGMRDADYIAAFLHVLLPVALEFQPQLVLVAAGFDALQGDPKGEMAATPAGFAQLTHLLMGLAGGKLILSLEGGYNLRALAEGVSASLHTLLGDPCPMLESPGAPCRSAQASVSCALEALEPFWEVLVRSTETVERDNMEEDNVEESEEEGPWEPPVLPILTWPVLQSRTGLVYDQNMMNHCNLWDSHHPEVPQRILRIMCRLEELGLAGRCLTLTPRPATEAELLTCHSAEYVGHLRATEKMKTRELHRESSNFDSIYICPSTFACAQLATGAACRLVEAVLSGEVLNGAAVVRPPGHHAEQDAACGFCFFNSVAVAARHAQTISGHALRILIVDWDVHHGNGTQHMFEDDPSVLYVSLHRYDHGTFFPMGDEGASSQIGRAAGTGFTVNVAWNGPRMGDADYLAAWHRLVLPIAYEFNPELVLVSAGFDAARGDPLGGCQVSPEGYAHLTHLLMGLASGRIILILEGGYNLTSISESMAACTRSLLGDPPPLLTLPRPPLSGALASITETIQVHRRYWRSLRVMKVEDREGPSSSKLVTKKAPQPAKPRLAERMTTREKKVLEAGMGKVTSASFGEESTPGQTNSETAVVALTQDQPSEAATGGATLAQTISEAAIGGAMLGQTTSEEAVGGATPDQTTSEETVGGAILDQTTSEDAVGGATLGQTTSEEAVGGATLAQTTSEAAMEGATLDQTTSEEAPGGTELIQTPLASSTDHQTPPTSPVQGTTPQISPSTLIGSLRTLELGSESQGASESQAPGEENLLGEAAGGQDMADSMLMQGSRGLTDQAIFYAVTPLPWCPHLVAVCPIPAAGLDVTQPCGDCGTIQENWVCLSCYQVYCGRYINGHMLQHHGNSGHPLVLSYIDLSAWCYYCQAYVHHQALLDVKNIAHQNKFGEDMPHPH

[4] = test system: RPMI8226 cells; settings: 24 h
Method: The inhibitory effect of bortezomib and/or tubacin on MM cell growth was assessed by measuring 3-(4,5-dimethylthiazol-2-yl)-2,5-diphenyl tetrazolium bromide (MTT) dye absorbance, as described previously (33). Cells from 48 h cultures were pulsed with 10 μl of 5 mg/ml MTT to each well for the last 4 h of 48 h cultures, followed by 100 μl isopropanol containing 0.04N HCl. Absorbance was measured at 570 nm using a spectrophotometer (Molecular Devices Corp., Sunnyvale Calif.). All experiments were performed in quadruplicate.

[5] = test system: MM.1S cells and RPMI cells; test: Inhibition of protein catabolism in myeloma cells; type: cell-based; settings: FIG. 18
[6] = test system: JNK phosphorylation and caspase/PARP cleavage; test: Western blotting for p21Cip1, p-JNK, caspases and PARP; type: cell-based, human; settings: MM.1S cells, tubacin 5 μM and/or bortezomib 5 nM, 24 h
Method: (§1) MM cells were cultured with Velcade and/or Tubacin; harvested; washed; and lysed using lysis buffer: 50 mM Tris-HCl (pH 7.4), 150 mM NaCl, 1% NP-40, 5 mM EDTA, 5 mM NaF, 2 mM Na3VO4, 1 mM PMSF, 5 μg/ml leupeptine, and 5 μg/ml aprotinin. Cell lysates were subjected to SDS-PAGE, transferred to PVDF membrane (Bio-Rad Laboratories, Hercules, Calif.), and immunoblotted with Abs against specific proteins.
(§2) Cells cultured with tubacin and/or bortezomib were harvested; washed, and lysed using lysis buffer: 50 mM Tris-HCl (pH 7.4), 150 mM NaCl, 1% NP-40, 5 mM EDTA, 5 mM NaF, 1 mM Na3VO4, 1 mM PMSF, 5 μg/ml leupeptine, and 5 μg/ml aprotinin. Whole cell lysates were subjected to SDS-PAGE, transferred to nitrocellulose membrane (Bio-Rad Laboratories, Hercules, Calif.), and immunoblotted with specific Abs (31). Western blotting was done using anti-HDAC6, acetylated lysine, acetylated histone H3, acetylated histone H4, ubiquitin (Ub), phospho-SAPK (JNK), caspase-8 caspase-9, caspase-3, and PARP Abs (Cell Signaling, Beverly, Mass.); with anti-α-tubulin Ab (Santa Cruz Biotechnology, Santa Cruz, Calif.); as well as with anti-dynein Ab (Sigma, Saint Louis, Mo.). For immunoprecipitation, whole cell lysates were incubated with anti-Ub or dynein Abs overnight at 4° C., and then incubated with protein A/G PLUS-Agarose (Santa Cruz Biotechnology) for 2 h at 4° C., as in our prior study (31). Immunoprecipitates were then subjected to Western blotting for detection of HDAC6 and dynein.

[7] = test system: MM.1S and RPMI8226 cells; test: [3H]-thymidine uptake of MM cells adherent to BMSCs; type: cell-based, human; settings: MM cells adherent to BMSCs, 24 h
Method: […] DNA synthesis was measured as described above.
After treatment, DNA synthesis was measured by [^3H]-thymidine (Perkin Elmer, Boston Mass.) uptake, as previously described (44). All experiments were performed in quadruplicate.

[8] = test system: patients with refractory relapsed MM; settings: 202 patients; cited from earlier work
[9] = test system: MM.1S cells; test: Cell cycle profile by flow cytometry (PI staining); type: cell-based, human; settings: bortezomib 5 nM alone, 24 h; increased from 14.2%
Method: […] Cells were then stained with propidium iodine (PI, Sigma) (5 μg/ml) and cell cycle profile was determined using program M software on an Epics flow cytometer (Coulter Immunology, Hialeah, Fla.) (44).

[10] = biological target: T1, HDAC6; test: Western blotting with anti-acetylated lysine / HDAC6 Abs; type: cell-based; parameters: MM.1S, U266, INA-6, RPMI8226, and RPMI-LR5 MM cell lines constitutively express HDAC6; endogenous in cells; host or cells: MM.1S, RPMI8226 and other MM cell lines; MM patient BMPCs/PBMCs; settings: niltubacin 2.5 and 5 μM, 24 h, MM.1S cells
Method: as §1, §2

[11] = test system: MM.1S cells; test: MTT assay with niltubacin or HDAC6 siRNA, with or without bortezomib; type: cell-based, human; settings: niltubacin 2.5 and 5 μM, 5 nM bortezomib
Method: The inhibitory effect of bortezomib and/or tubacin on MM cell growth was assessed by measuring 3-(4,5-dimethylthiazol-2-yl)-2,5-diphenyl tetrazolium bromide (MTT) dye absorbance, as described previously (33). […] All experiments were performed in quadruplicate.
MM.1S cells were transiently transfected with HDAC6 siRNA (Dharmacon Inc., Lafayette, Colo.) using “Cell Line Nucleofecto™ Kit V,” according to manufacturer's (Amaxa Biosystems, Gaithersburg, Md.) instructions (33). Following transfection, MM.1S cells were subjected to Western blotting and MTT assay, in the presence or absence of bortezomib.

O=C(CCCCCCC(=O)Nc1ccc(C2OC(CSc3nc(-c4ccccc4)c(-c4ccccc4)o3)CC(c3ccccc3)O2)cc1)NO (centres unmarked) [DHM-Tubacin, des(hydromethyl)-Tubacin]
specificity for tubulin acetylation versus lysine acetylation [1]: specificity | synergy with Velcade ([2]; MM.1S and RPMI cells): synergy

Cc1[nH]c2ccccc2c1CCNCc1ccc(/C=C/C(=O)NO)cc1 [LBH589, reference compound]
toxicity and synergy with Bortezomib ([2]; MM.1S cells): toxicity and synergy | toxicity and synergy with Bortezomib ([2]; RPMI-8226 cells): toxicity and synergy

CC(/C=C/C(=O)NO)=C\[C@@H](C)C(=O)c1ccc(N(C)C)cc1 [Trichostatin]
inhibition of HDAC6 [3]: potent inhibitor of both HDAC6 domains

CC(C)C[C@H](NC(=O)[C@H](Cc1ccccc1)NC(=O)c1cnccn1)B(O)O [bortezomib]
RPMI8226 cell death ([4]; 5 nM bortezomib alone): 26% | RPMI8226 cell death ([4]; 10 nM bortezomib alone): 66% | inhibition of protein catabolism [5]: potent inhibitors of protein catabolism | phosphorylation of JNK and caspase/PARP cleavage [6]: induces only modest phosphorylation of JNK as well as caspase-9, -8, -3 and PARP cleavage | BMSC-induced [3H]-thymidine uptake / MM cell growth with BMSCs, single agent [7]: inhibits BMSC-induced [^3H]-thymidine uptake in a dose-dependent fashion | complete and near complete responses [8]: 10% | patients who did not respond [8]: 65% | responses [8]: 35% | G2M phase MM.1S cells [9]: 39.5%

O=C(O)CCCCCCC(=O)Nc1ccc([C@H]2O[C@@H](CSc3nc(-c4ccccc4)c(-c4ccccc4)o3)C[C@@H](c3ccc(CO)cc3)O2)cc1 [niltubacin, reference compound]
acetylation of α-tubulin [10]: does not affect | enhancement of cytotoxicity induced by bortezomib [11]: does not affect either acetylation of α-tubulin (FIG. 4F) or enhance cytotoxicity

O=C1N[C@@H](Cc2ccccc2)C(=O)N2CCC[C@@H]2C(=O)N[C@@H](CCCCCC(=O)[C@@H]2CO2)C(=O)N[C@H]1Cc1ccccc1 [trapoxin] (cyclo(FF[dP][Aoe]))
inhibition of HDAC6 [3]: does not inhibit HDAC6
